Results from patent publication US11840528B2 (Hoffmann-La Roche Inc., priority 2018, dated 2023).

Tests used:
[1] = target: T1, h-GABA-A α5β3γ2 (Homo sapiens, UniProt P18507+P31644); test: [3H]flumazenil competition binding assay, membranes of HEK293 cells expressing GABAA receptors; settings: displacement of [3H]-Flumazenil 0.5 nM, HEK293 cells expressing human receptors, mean of two determinations; Table 1
Procedure: The affinity of compounds at GABAA receptor subtypes was measured by competition for [3H]flumazenil (85 Ci/mmol; Roche) binding to HEK293 cells expressing rat (stably transfected) or human (transiently transfected) receptors of composition α1β3γ2, α2β3γ2, α3β3γ2 and α5β3γ2.
Cell pellets were suspended in Krebs-tris buffer (4.8 mM KCl, 1.2 mM CaCl2), 1.2 mM MgCl2, 120 mM NaCl, 15 mM Tris; pH 7.5; binding assay buffer), homogenized by polytron for ca. 20 sec on ice and centrifuged for 60 min at 4° C. (50000 g; Sorvall, rotor: SM24=20000 rpm). The cell pellets were resuspended in Krebs-tris buffer and homogenized by polytron for ca. 15 sec on ice. Protein was measured (Bradford method, Bio-Rad) and aliquots of 1 mL were prepared and stored at −80° C.
Assays were incubated to equilibrium for 1 hour at 4° C. and harvested onto GF/C uni-filters (Packard) by filtration using a Packard harvester and washing with ice-cold wash buffer (50 mM Tris; pH 7.5). After drying, filter-retained radioactivity was detected by liquid scintillation counting. Ki values were calculated using Excel-Fit (Microsoft) and are the means of two determinations.

[2] = target: T1, h-GABA-A α5β3γ2; test: Two-electrode voltage clamp electrophysiology in Xenopus laevis oocytes expressing GABAA receptors, modulation of GABA EC20 current; type: cell-based; design: host or cells: Xenopus laevis oocytes micro-injected with RNA transcripts of the subunits
Procedure: Xenopus laevis oocytes at maturation stages V-VI were used for the expression of cloned mRNA encoding GABAA receptor subunits. Oocytes ready for RNA micro-injection were bought from Ecocyte, Castrop-Rauxel, Germany and stored in modified Barth's medium (composition in mM: NaCl 88, KCl 1, NaHCO32.4, HEPES 10, MgSO4 0.82, CaNO3 0.33, CaCl2 0.33, pH=7.5) at 20° C. until the experiment.
Oocytes were plated in 96-well plates to be used in an automated instrument (Robo-ocyte, MultiChannelSystems, Reutlingen, Germany) for microinjection and electrophysiological recordings. Approximately 50 nl of an aqueous solution containing the RNA transcripts for the subunits of the desired GABAA receptor was injected into each oocyte. RNA concentrations ranged between 0.3 and 16 ng/μl/subunit and were adjusted in pilot experiments to obtain GABA responses of a suitable size and a maximal effect of the reference modulator, Beta-CCM (β-CCM), a betacarboline negative allosteric modulator (NAM) at the GABAA receptor benzodiazepine (BZD) binding site or Midazolam, a benzodiazepine positive allosteric modulator (PAM) at the GABAA receptor benzodiazepine (BZD) binding site. The concentration of the γ2 subunit encoding RNA usually was 5- to 10-fold higher than the RNAs encoding the other subunits. Oocytes were kept in modified Barth's medium (composition in mM: NaCl 88, KCl 1, NaHCO3 4, HEPES 10, MgSO4 0.82, CaNO3 0.33, CaCl2) 0.33, pH=7.5) at 20° C. until the experiment.
Electrophysiological experiments were performed on days 3 to 5 after the micro-injection of mRNA. During the experiment the oocytes were constantly superfused by a solution containing (in mM) NaCl 90, KCl 1, HEPES 5, MgCl2 1, CaCl2) 1 (pH 7.4). Oocytes were impaled by two glass microelectrodes (resistance: 0.4 MΩ) which were filled with a solution containing KCl 1M+K-acetate 1.5 M and voltage-clamped to −80 mV. The recordings were performed at room temperature using the Roboocyte two-electrode voltage clamp system (Multichannelsystem). After an initial equilibration period of 1.5 min GABA was added for 1.5 min at a concentration evoking approximately 20% of a maximal current response (EC20). After another rest interval of 2.5 min GABA was again added evoking a response of similar amplitude and shape. 0.5 min after the onset of this second GABA application the test compound, at a concentration corresponding to approximatively 30 fold its Ki, was added while GABA was still present. Current traces were recorded at a digitization rate of 10 Hz during and shortly before and after the GABA application.
Each compound and concentration was tested on at least 3 oocytes. Different oocytes were used for different compound concentrations. β-CCM, a negative allosteric modulator, or Midazolam, a positive allosteric modulators, were tested on a few (3-6) oocytes on each 96-well plate for a positive control at a maximally effective. β-CCM inhibited the GABA-evoked current by approximatively 50% (Fold increase ˜0.5), while Midazolam potentiated the GABA-induced current by approximatively 150% (Fold increase ˜2.5).
For the analysis, the digitized current traces of the first and second GABA response were superimposed and, if necessary, rescaled to equal maximal amplitudes. The ratio between the two responses during the time interval of test compound application was calculated point by point. The extremum of the resulting “ratio trace” was taken as the efficacy (“Fold increase”) of the compound expressed as “% modulation of GABA EC20” (100*(Fold increase-1)).

[3] = % modulation of GABA EC20 = 100*(Fold increase-1), Table 1
[4] = test compound at approx. 30 fold its Ki, GABA at EC20, Table 1
[5] = positive control at a maximally effective concentration, 3-6 oocytes per plate

Row | SMILES | Ki [1] [nM] | Efficacy (GABA) % [2, 3] [%] | Fold increase h-GABA-A α5β3γ2 oocyte [2, 4] | Fold increase [2, 5] | inhibition of the GABA-evoked current [2, 5] [%] | Efficacy (GABA) % ([2]; reference compounds, % modulation of GABA EC20, Table 2) [%] | Fold increase h-GABA-A α5β3γ2 oocyte ([2]; reference compounds, Table 2) | potentiation of the GABA-induced current [2, 5] [%]
1 | Cc1ccc(-c2noc(C)c2Cn2ncc(N3CC4(C[C@H](F)CO4)C3)cc2=O)cn1 [Example 201, 5-[(7S)-7-fluoro-5-oxa-2-azaspiro[3.4]octan-2-yl]-2-[[5-methyl-3-(6-methyl-3-pyridyl)isoxazol-4-yl]methyl]pyridazin-3-one] | 14.3 | 93 | 1.93 |  |  |  |  | 
2 | Cc1ccc(-c2nocc2Cn2ncc(N3C[C@@H](C)O[C@@H](C)C3)cc2=O)cn1 [Example 32, 5-(cis-2,6-dimethylmorpholin-4-yl)-2-[[3-(6-methyl-3-pyridyl)isoxazol-4-yl]methyl]pyridazin-3-one] | 12.7 | 288 | 3.88 |  |  |  |  | 
3 | CNc1ccc(-c2cnn(Cc3c(-c4ccc(C)nc4)noc3C)c(=O)c2)cn1 [Example 174, 5-(6-(methylamino)-3-pyridyl)-2-((5-methyl-3-(6-methyl-3-pyridyl)isoxazol-4-yl)methyl)pyridazin-3-one] | 21.7 | 101 | 2.01 |  |  |  |  | 
4 | Cc1ccc(-c2noc(C)c2Cn2ncc(N3CC4(C3)CN(C3CC3)C4)cc2=O)cn1 [Example 58, 5-(2-cyclopropyl-2,6-diazaspiro[3.3]heptan-6-yl)-2-[[5-methyl-3-(6-methyl-3-pyridyl)isoxazol-4-yl]methyl]pyridazin-3-one] | 70.4 | 209 | 3.09 |  |  |  |  | 
5 | Cc1nonc1N1CCN(c2cnn(Cc3c(-c4ccc(Cl)nc4)noc3C)c(=O)c2)CC1 [Example 280, 2-((3-(6-chloropyridin-3-yl)-5-methylisoxazol-4-yl)methyl)-5-(4-(4-methyl-1,2,5-oxadiazol-3-yl)piperazin-1-yl)pyridazin-3(2H)-one] | 7.5 | 166 | 2.66 |  |  |  |  | 
6 | Cc1ccc(-c2noc(C)c2Cn2ncc(-c3ccnc(OC(F)F)c3)cc2=O)cn1 [Example 175, 5-(2-(difluoromethoxy)pyridin-4-yl)-2-((5-methyl-3-(6-methylpyridin-3-yl)isoxazol-4-yl)methyl)pyridazin-3(2H)-one] | 6.6 | 86 | 1.86 |  |  |  |  | 
7 | Cc1ccc(-c2noc(C)c2Cn2ncc(N3CC(Oc4cccnc4)C3)cc2=O)cn1 [Example 126, 2-[[5-methyl-3-(6-methyl-3-pyridyl)isoxazol-4-yl]methyl]-5-[3-(3-pyridyloxy)azetidin-1-yl]pyridazin-3-one] | 9.4 | 134 | 2.34 |  |  |  |  | 
8 | Cc1onc(-c2ccc(Cl)nc2)c1Cn1ncc(N2CC3(CCCCO3)C2)cc1=O [Example 233, 2-((3-(6-chloropyridin-3-yl)-5-methylisoxazol-4-yl)methyl)-5-(5-oxa-2-azaspiro[3.5]nonan-2-yl)pyridazin-3(2H)-one] | 33.6 | 82 | 1.82 |  |  |  |  | 
9 | COc1cc(-c2cnn(Cc3c(-c4ccc(C)nc4)noc3C)c(=O)c2)cnc1OC [Example 179, 5-(5,6-dimethoxypyridin-3-yl)-2-((5-methyl-3-(6-methylpyridin-3-yl)isoxazol-4-yl)methyl)pyridazin-3(2H)-one] | 29.7 | 133 | 2.33 |  |  |  |  | 
10 | Cc1ccc(-c2noc(C)c2Cn2ncc(N3CCC(C(F)(F)F)CC3)cc2=O)cn1 [Example 24, 2-[[5-methyl-3-(6-methyl-3-pyridyl)isoxazol-4-yl]methyl]-5-[4-(trifluoromethyl)-1-piperidyl]pyridazin-3-one] | 14.6 | 203 | 3.03 |  |  |  |  | 
11 | Cc1onc(-c2ccc(C3CC3)nc2)c1Cn1ncc(N2CC3(C2)CC(F)(F)CO3)cc1=O [Example 260, 2-((3-(6-cyclopropylpyridin-3-yl)-5-methylisoxazol-4-yl)methyl)-5-(7,7-difluoro-5-oxa-2-azaspiro[3.4]octan-2-yl)pyridazin-3(2H)-one] | 3.7 | 123 | 2.23 |  |  |  |  | 
12 | Cc1onc(-c2ccc(Cl)nc2)c1Cn1ncc(N2CC3(C[C@H](F)CO3)C2)cc1=O [Example 232, (S)-2-((3-(6-chloropyridin-3-yl)-5-methylisoxazol-4-yl)methyl)-5-(7-fluoro-5-oxa-2-azaspiro[3.4]octan-2-yl)pyridazin-3(2H)-one] | 37 | 104 | 2.04 |  |  |  |  | 
13 | Cc1ccc(-c2noc(C)c2Cn2ncc(N3CCC(C)(O)CC3)cc2=O)cn1 [Example 119, 5-(4-hydroxy-4-methylpiperidin-1-yl)-2-((5-methyl-3-(6-methylpyridin-3-yl)isoxazol-4-yl)methyl)pyridazin-3(2H)-one] | 2.6 | 138 | 2.38 |  |  |  |  | 
14 | Cc1ccc(-c2noc(C)c2Cn2ncc(N3C[C@H]4COC[C@H]4C3)cc2=O)cn1 [Example 49, 5-[(3aR,6aS)-1,3,3a,4,6,6a-hexahydrofuro[3,4-c]pyrrol-5-yl]-2-[[5-methyl-3-(6-methyl-3-pyridyl)isoxazol-4-yl]methyl]pyridazin-3-one] | 13 | 167 | 2.67 |  |  |  |  | 
15 | Cc1ccc(-c2noc(C)c2Cn2ncc(N3CC4(CCC(C)CO4)C3)cc2=O)nn1 (single isomer, unassigned) [Example 313] | 7.9 | 103 | 2.03 |  |  |  |  | 
16 | Cc1cc(-c2noc(C)c2Cn2ncc(N3CCN(C4CC4)CC3)cc2=O)no1 [Example 63, 5-(4-cyclopropylpiperazin-1-yl)-2-[[5-methyl-3-(5-methylisoxazol-3-yl)isoxazol-4-yl]methyl]pyridazin-3-one] | 5.9 | 41 | 1.41 |  |  |  |  | 
17 | COC(=O)c1cc2c(cn1)[nH]c1ccccc12 [β-CCM, reference compound] |  |  |  | ~0.5 | ~50 |  |  | 
18 | Cc1onc(-c2ccc(Cl)cn2)c1COc1ccc(C(=O)N2CCOCC2)cn1 [RO-309, reference compound] |  |  |  |  |  | −17 | 0.83 | 
19 | Cc1ncc2n1-c1ccc(Cl)cc1C(c1ccccc1F)=NC2 [Midazolam, reference compound] |  |  |  | ~2.5 |  |  |  | ~150
